These results are taken from US5039806A, “Novel pharmacologically active compound pyridyl methylsulfinyl benzimidazole” (AB Hassle, priority 1983, dated 1991).

As a reminder, the IC50 is the point on the concentration scale where inhibition reaches its midpoint. Low values mean greater potency, high ones weaker potency.

The subject of the test is isolated rabbit gastric glands. The test can be described thus: Inhibiting effect in vitro on acid secretion in isolated rabbit gastric glands (14C-aminopyrine accumulation). It counts as cell-based. The settings on record: Oryctolagus cuniculus, 1 h, logarithm of concentration (in M) giving 50% inhibition of aminopyrine accumulation; 5×10^-5 M histamine, 60 min, free base. Here is the method:
I. Inhibiting effect in vitro on acid secretion in isolated rabbit gastric glands
Isolated rabbit gastric glands were prepared as described by Berglindh et al., Acta physiol. scand. 1976. 96. 150-159. This method involves vascular perfusion of the rabbit stomach via the gastric arteries, scraping and scissor mincing of the separated gastric mucosa and collagenase (0.1%, Type I, Sigma Chemicals, St. Louis, MO. USA) digestion at 37° C. for 60-90 min. The glands are then harvested and filtered through nylon cloth to remove coarse fragments. The glands are thereafter incubated at 37° C. in a medium containing NaCl 132.4 mM, KCl 5.4 mM, […], NaH2 PO4 1.0 mM, MgSO4 1.2 mM, CaCl2 1.0 mM, glucose 10 mM, and 1 mg/ml rabbit albumine, pH 7.4.
The acid secretion in the isolated gland preparation was recorded by measuring the uptake of ^14 C-labelled aminopyrine into the glands as described by Berglindh et al., Acta physiol. scand. 1976. 97. 401-414. Accumulation of aminopyrine in the glands indicates gastric acid secretion within the glands. The standard medium contained 10^-6 M ^14 C-aminopyrine (Amersham, Great Britain). After the incubation period, the glands were centrifuged, the supernatant was removed and the glands dried, weighed and dissolved in Soluene -350 (Packard, IU. USA). Samples of the supernatant and glands were separately counted in a scintillation counter. The accumulation of ^14 C-labelled aminopyrine in the glands was calculated as detailed by Berglindh et al., Acta physiol. scand. 1976. 97. 403.
Glands were incubated for 60 min. in the presence of 5×10^-5 M histamine and the test compound to be studied. The free base of the test compound was dissolved in methanol. The final concentration of methanol was 1% in the incubation medium, having no influence on the aminopyrine accumulation ratio.
As for `COc1ccc2[nH]c([S+]([O-])Cc3cc4c(cn3)CCCC4)nc2c1` (stereo not drawn) [Example 37], the IC50 is 10000 nM.
In turn, `COc1c(C)cc2[nH]c([S+]([O-])Cc3nccc(C)c3C)nc2c1C` (stereo not drawn) [Example 1, 4,6-dimethyl-5-methoxy-2-[[(3,4-dimethyl-2-pyridinyl)methyl]sulfinyl]-1H-benzimidazole] had an IC50 of 200 nM.
As for `C=CCOc1c(C)cnc(C[S+]([O-])c2nc3c(C)c(C)ccc3[nH]2)c1C` (stereo not drawn) [Example 22], the figure is 1000 nM; as for `CCC(=O)c1c(C)cc2[nH]c([S+]([O-])Cc3ncc(C)c(OC)c3C)nc2c1C` (stereo not drawn) [Example 66], 1000 nM; as for `COc1c(C)cnc(C[S+]([O-])c2nc3c(C)c(OC)c(C)cc3[nH]2)c1C` (stereo not drawn) [Example 8, 4,6-dimethyl-5-methoxy-2-[[(4-methoxy-3,5-dimethyl-2-pyridinyl)methyl]sulfinyl]-1H-benzimidazole], 316 nM.
The same measure for `COc1c(C)cnc(C[S+]([O-])c2nc3cc4c(cc3[nH]2)OC2(CCCCC2)O4)c1C` (stereo not drawn) [Example 106]: 1000 nM.
As for `CCc1cnc(C[S+]([O-])c2nc3cc(OC)ccc3[nH]2)cc1OC` (stereo not drawn) [Example 35], the figure is 2510 nM; as for `C=CCOc1c(C)cnc(C[S+]([O-])c2nc3cc(Br)ccc3[nH]2)c1C` (stereo not drawn) [Example 129], 1000 nM.
As for `Cc1ccnc(C[S+]([O-])c2nc3c(C)c(C)cc(C)c3[nH]2)c1C` (stereo not drawn) [Example 151], the IC50 was 501 nM.
The compound `CCc1cnc(C[S+]([O-])c2nc3cc(C(=O)OC)c(C)cc3[nH]2)cc1OC` (stereo not drawn) [Example 143] showed an IC50 of 794 nM.
For the compound `COc1c(C)cnc(C[S+]([O-])c2nc3cc(OCCCOc4ccccc4)ccc3[nH]2)c1C` (stereo not drawn) [Example 91], half-maximal inhibition (IC50) required 1580 nM.
As for `C=CCOc1c(C)cnc(C[S+]([O-])c2nc3cc(C)ccc3[nH]2)c1C` (stereo not drawn) [Example 30], the figure is 1260 nM; as for `COc1c(C)cnc(C[S+]([O-])c2nc3c(C)c(OC)c(C)c(C)c3[nH]2)c1C` (stereo not drawn) [Example 74], 631 nM; as for `COc1c(C)cnc(C[S+]([O-])c2nc3cc(-c4ccccc4)ccc3[nH]2)c1C` (stereo not drawn) [Example 124], 100 nM.
With `C=CCOc1c(C)cnc(C[S+]([O-])c2nc3c(C)c(C)c(C)cc3[nH]2)c1C` (stereo not drawn) [Example 14], 794 nM corresponded to half-maximal inhibition (IC50).
`C=CCOc1c(C)cnc(C[S+]([O-])c2nc3c(C)ccc(C)c3[nH]2)c1C` (stereo not drawn) [Example 26]: it took 1260 nM to reach half-maximal inhibition (IC50).
As for `Cc1cnc(C[S+]([O-])c2nc3cc4c(cc3[nH]2)OCO4)c(C)c1C` (stereo not drawn) [Example 142], the figure is 1000 nM; as for `C=CCOc1c(C)cnc(C[S+]([O-])c2nc3cc(C(=O)OC)c(C)cc3[nH]2)c1C` (stereo not drawn) [Example 55], 5010 nM; as for `Cc1ccnc(C[S+]([O-])c2nc3c(C)c(C)c(C)cc3[nH]2)c1C` (stereo not drawn) [Example 145], 631 nM.
As for `COCCc1ccc2[nH]c([S+]([O-])Cc3ncc(C)c(OC)c3C)nc2c1` (stereo not drawn) [Example 104], the figure is 2000 nM.
As for `COc1c(C)cnc(C[S+]([O-])c2nc3c(C)c(C)cc(C)c3[nH]2)c1C` (stereo not drawn) [Example 20], the figure is 1000 nM.
`CCc1c(C)cc2[nH]c([S+]([O-])Cc3ncc(C)c(OC)c3C)nc2c1C` (stereo not drawn) [Example 68] showed an IC50 of 316 nM.
The same measure for `C=CCOc1c(C)cnc(C[S+]([O-])c2nc3cc(OC)ccc3[nH]2)c1C` (stereo not drawn) [Example 32]: 2510 nM; for `Cc1cnc(C[S+]([O-])c2nc3c(C)c(C)c(C)cc3[nH]2)cc1C` (stereo not drawn) [Example 147]: 398 nM.
In the case of `CCOc1c(C)cnc(C[S+]([O-])c2nc3c(C)c(C#N)c(C)cc3[nH]2)c1C` (stereo not drawn) [Example 153], half-maximal inhibition (IC50) was put at 6310 nM.
The same measure for `COc1c(C)cnc(C[S+]([O-])c2nc3cc(OCC#N)ccc3[nH]2)c1C` (stereo not drawn) [Example 43]: 39800 nM; for `COc1c(C)cnc(C[S+]([O-])c2nc3c(C)c(C)c(C)c(C)c3[nH]2)c1C` (stereo not drawn) [Example 12]: 316 nM.
As for `COc1c(C)cnc(C[S+]([O-])c2nc3c(C)c(C)c(C)cc3[nH]2)c1C` (stereo not drawn) [Example 16], the figure is 316 nM; as for `C=CCOc1c(C)cnc(C[S+]([O-])c2nc3cc(CC)ccc3[nH]2)c1C` (stereo not drawn) [Example 94], 251 nM.
The same measure for `COc1ccc2[nH]c([S+]([O-])Cc3ncc(C)c(OCCC(C)C)c3C)nc2c1` (stereo not drawn) [Example 96]: 794 nM.
For the compound `C=CCOc1c(C)cnc(C[S+]([O-])c2nc3c(C)cccc3[nH]2)c1C` (stereo not drawn) [Example 28], it took 1260 nM to reach half-maximal inhibition (IC50).
The same measure for `CCc1cc2[nH]c([S+]([O-])Cc3ncc(C)c(OC)c3C)nc2c(CC)c1C#N` (stereo not drawn) [Example 72]: 10000 nM.
In turn, `C#CCOc1c(C)cnc(C[S+]([O-])c2nc3cc(OC)ccc3[nH]2)c1C` (stereo not drawn) [Example 34] had an IC50 of 10000 nM.
The same measure for `CCc1cnc(C[S+]([O-])c2nc3cc(C)c(C)cc3[nH]2)cc1OC` (stereo not drawn) [Example 77]: 1000 nM.
As for `COc1c(C)cnc(C[S+]([O-])c2nc3cc(C4CCCCC4)ccc3[nH]2)c1C` (stereo not drawn) [Example 45], the IC50 is 794 nM.
The same measure for `C=CCOc1c(C)cnc(C[S+]([O-])c2nc3cc(C(C)(C)C)ccc3[nH]2)c1C` (stereo not drawn) [Example 102]: 1260 nM; for `COc1c(C)cnc(C[S+]([O-])c2nc3c4c(ccc3[nH]2)CCCC4)c1C` (stereo not drawn) [Example 87]: 501 nM; for `C=CCOc1c(C)cnc(C[S+]([O-])c2nc3c(C)c(C)c(C)c(C)c3[nH]2)c1C` (stereo not drawn) [Example 10]: 794 nM.
As for `CCc1c(C)cc2[nH]c([S+]([O-])Cc3nccc(OC)c3C)nc2c1C` (stereo not drawn) [Example 70], the figure is 1260 nM; as for `C=CCOc1c(C)cnc(C[S+]([O-])c2nc3c(C)cc(C)cc3[nH]2)c1C` (stereo not drawn) [Example 41], 1260 nM.
The same measure for `Cc1cnc(C[S+]([O-])c2nc3cc(C(F)(F)F)ccc3[nH]2)c(C)c1OCC1CCCO1` (stereo not drawn) [Example 159]: 501 nM; for `COc1c(C)cnc(C[S+]([O-])c2nc3c(cc4c5c(cccc53)CC4)[nH]2)c1C` (stereo not drawn) [Example 98]: 2510 nM.
Turning to `C=CCOc1c(C)cnc(C[S+]([O-])c2nc3cc(C)c(C)cc3[nH]2)c1C` (stereo not drawn) [Example 24], the IC50 was 1000 nM.
As for `Cc1cnc(C[S+]([O-])c2nc3cc(C(C)C)ccc3[nH]2)c(C)c1OCC1CCCO1` (stereo not drawn) [Example 111], the figure is 631 nM; as for `COCCOc1c(C)cc2[nH]c([S+]([O-])Cc3ncc(C)c(OC)c3C)nc2c1C` (stereo not drawn) [Example 58], 1260 nM.
`Cc1cnc(C[S+]([O-])c2nc3c(C)c(C)c(C)cc3[nH]2)c(C)c1` (stereo not drawn) [Example 149] gave an IC50 of 631 nM.
Compound `COc1c(C)cnc(C[S+]([O-])c2nc3c(C)c(C(C)=O)c(C)cc3[nH]2)c1C` (stereo not drawn) [Example 62] showed an IC50 of 631 nM.
For `COc1c(C)cnc(C[S+]([O-])c2nc3cc(C(=O)N4CCCCC4C)ccc3[nH]2)c1C` (stereo not drawn) [Example 79], the IC50 is 10000 nM.
As for `COc1c(C)cnc(C[S+]([O-])c2nc3cc(OCCc4ccccc4)ccc3[nH]2)c1C` (stereo not drawn) [Example 120], the figure is 501 nM.
The same measure for `COCCOc1c(C)cc2[nH]c([S+]([O-])Cc3cc(C)c(C)cn3)nc2c1C` (stereo not drawn) [Example 60]: 3980 nM; for `C=CCOc1c(C)cnc(C[S+]([O-])c2nc3c(C)c(C)cc(C)c3[nH]2)c1C` (stereo not drawn) [Example 18]: 1260 nM.
The same measure for `COc1c(C)cnc(C[S+]([O-])c2nc3c(ccc4ccccc43)[nH]2)c1C` (stereo not drawn) [Example 83]: 5010 nM; for `CCCCCCCOc1c(C)cc2[nH]c([S+]([O-])Cc3ncc(C)c(OC)c3C)nc2c1C` (stereo not drawn) [Example 2, 4,6-dimethyl-5-heptyloxy-2-[[(4-methoxy-3,5-dimethyl-2-pyridinyl)methyl]sulfinyl]-1H-benzimidazole]: 1260 nM.
In turn, `CC(=O)c1c(C)cc2[nH]c([S+]([O-])Cc3ncc(C)cc3C)nc2c1C` (stereo not drawn) [Example 64] had an IC50 of 1580 nM.
The same measure for `COc1c(C)cnc(C[S+]([O-])c2nc3cc(CO)c(C)cc3[nH]2)c1C` (stereo not drawn) [Example 51]: 794 nM; for `COc1c(C)cnc(C[S+]([O-])c2nc3cc(Oc4ccccc4)ccc3[nH]2)c1C` (stereo not drawn) [Example 118]: 398 nM.
As for `C=CCOc1c(C)cnc(C[S+]([O-])c2nc3cc(CCC(C)=O)ccc3[nH]2)c1C` (stereo not drawn) [Example 113], 1580 nM corresponded to half-maximal inhibition (IC50).
